Experiment [1] addresses T1, human A3 adenosine receptor (Homo sapiens, UniProt P0DMS8).
T1 sequence (P0DMS8 1-318): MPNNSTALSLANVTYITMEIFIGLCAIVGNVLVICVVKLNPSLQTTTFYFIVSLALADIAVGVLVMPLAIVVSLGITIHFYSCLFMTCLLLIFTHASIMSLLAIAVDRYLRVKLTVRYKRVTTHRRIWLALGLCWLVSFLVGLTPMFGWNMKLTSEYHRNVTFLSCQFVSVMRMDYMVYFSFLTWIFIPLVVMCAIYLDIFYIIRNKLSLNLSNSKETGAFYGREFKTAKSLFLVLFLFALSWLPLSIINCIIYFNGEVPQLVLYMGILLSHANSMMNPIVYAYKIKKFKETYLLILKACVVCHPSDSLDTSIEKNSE
Nature of the experiment: biochemical. Set-up: species or system CHO. Particulars: read-out: % inhibition.

Experiment [2] addresses T1, human A3 adenosine receptor. Briefly: biochemical. Set-up: species or system CHO. Particulars: read-out: % inhibition. The source holds these as a separate data set.

Like-named read-outs stand apart in the source and are kept apart here.

Turning to `Clc1ccc(Nc2nc3ccccc3c3[nH]c(C4CCCCC4)nc23)cc1Cl` [compound 3], the inhibition at 10 µM in experiment [1] and in experiment [2] was 40.5 ± 13.4% in each case.

For the origin of these results see paper PMC2765805 (Journal of medicinal chemistry, 2009).
